According to article PMC6943726, “Discovery of 8-Amino-Substituted 2-Phenyl-2,7-Naphthyridinone Derivatives as New c-Kit/VEGFR-2 Kinase Inhibitors” (Molecules, 2019):

Legend:
Assay type in all cases: biochemical
MET = molecular target: T1, MET (Homo sapiens, UniProt P08581); experiment: HTRF enzyme assay with recombinant MET kinase domain; details: purified recombinant MET kinase domain, read-out: Inhibitory Activity, IC50, MET
T1 construct: was evaluated using an enzyme assay with a recombinant kinase domain; purchased Invitrogen (Carlsbad, CA, US)
T1 sequence (P08581 1078-1345 limits assumed): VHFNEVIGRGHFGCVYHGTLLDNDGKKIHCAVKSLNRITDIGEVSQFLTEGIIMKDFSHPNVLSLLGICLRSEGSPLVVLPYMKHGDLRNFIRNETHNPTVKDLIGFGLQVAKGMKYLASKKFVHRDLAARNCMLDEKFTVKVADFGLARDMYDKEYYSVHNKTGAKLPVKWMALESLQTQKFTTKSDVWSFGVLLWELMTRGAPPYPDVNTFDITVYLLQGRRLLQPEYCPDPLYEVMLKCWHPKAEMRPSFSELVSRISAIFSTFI
Procedure: (§1) The ability of the synthesized compounds to inhibit MET, c-Kit, and VEGFR-2 activities was evaluated using an enzyme assay with a recombinant kinase domain [29]. Based on the structure activity relationship (SAR) of MET inhibitors, we proposed that the removal of the key diaryl ether fragments in compound 3 would result in a loss of MET activity.
(§2) The ability of compounds to inhibit the activity of three kinases (MET, c-Kit, and VEGFR-2) was tested in vitro [30]. Enzyme assays were run in homogeneous time-resolved fluorescence (HTRF) format in 384-well microtiter plates using purified kinases purchased from Invitrogen (Carlsbad, CA, US). The HTRF KinEASE TK kit (contains substrate-biotin, antibody-cryptate, streptavidin-XL665, 5×enzymatic buffer, and detection buffer) was purchased from Cisbio (Codolet, France), and the kinase assays were performed according to the manufacturer’s instructions. After the kinases and the compounds incubated at 25~30 °C for 5 min, the reactions were initiated by the addition of 2 μL of mixed substrate solution (mixed solution of ATP (Sigma, Shanghai, China) and substrate-biotin). The final concentrations of kinases were at EC80 and the total reaction volume was 8 μL. Plates were incubated at 30 °C for 30~60 min, then the reactions were quenched by the addition 8 μL mixed detection solution (mixed solution of antibody-cryptate and streptavidin-XL665 in detection buffer). The fluorescence excitation wavelength was […]. The fluorescence at 665 nm (acceptor emission wavelength) and 620 nm (donor emission wavelength) was measured with a PHERAstar FS plate reader (BMG, LABTECH, Ortenberg, Germany) using a time delay of 50 μs. All kinase assays were conducted using ATP concentrations below the enzyme Kmapp and kinase-specific biotinylated substrate peptides.
(§3) The data for dose responses were plotted as percentage of inhibition calculated with the data reduction formula 100 × [1 − (U1 − C2)/(C1 − C2)] versus concentration of compound, where U is the emission ratio of 665 nm and 620 nm of test sample, C1 is the average value obtained for solvent control (2% DMSO), and C2 is the average value obtained for no reaction control (no kinase sample). Inhibition curves were generated by plotting percentage of control activity versus log10 of the concentration of each […]. The IC50 values were calculated by nonlinear regression with Graphpad Prism 5 (GraphPad Software, San Diego, CA).

c-Kit = molecular target: T2, c-Kit (Homo sapiens, UniProt P10721); experiment: HTRF enzyme assay with recombinant c-Kit kinase domain; details: for IC50: purified recombinant c-Kit kinase domain, HTRF, read-out: Inhibitory Activity, IC50, c-Kit
T2 construct: was evaluated using an enzyme assay with a recombinant kinase domain; purchased Invitrogen (Carlsbad, CA, US)
T2 sequence (P10721 589-937 limits assumed): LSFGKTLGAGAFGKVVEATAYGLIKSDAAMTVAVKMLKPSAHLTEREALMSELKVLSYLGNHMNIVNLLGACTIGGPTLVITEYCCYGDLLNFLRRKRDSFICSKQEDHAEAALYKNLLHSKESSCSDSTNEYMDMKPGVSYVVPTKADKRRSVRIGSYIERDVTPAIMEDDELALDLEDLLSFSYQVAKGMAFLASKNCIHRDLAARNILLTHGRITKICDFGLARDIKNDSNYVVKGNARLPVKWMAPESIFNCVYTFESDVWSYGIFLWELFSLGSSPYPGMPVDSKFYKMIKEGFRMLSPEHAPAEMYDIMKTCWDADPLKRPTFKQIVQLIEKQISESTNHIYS
Procedure: as §1, §2, §3

VEGFR-2 = molecular target: T3, VEGFR-2 (Homo sapiens, UniProt P35968); experiment: HTRF enzyme assay with recombinant VEGFR-2 kinase domain; details: for IC50: purified recombinant VEGFR-2 kinase domain, HTRF, read-out: Inhibitory Activity, IC50, VEGFR-2; for VEGFR-2 potency, fold more potent than compound 3: ratio of IC50 values vs compound 3
T3 construct: was evaluated using an enzyme assay with a recombinant kinase domain; purchased Invitrogen (Carlsbad, CA, US)
T3 sequence (P35968 834-1162 limits assumed): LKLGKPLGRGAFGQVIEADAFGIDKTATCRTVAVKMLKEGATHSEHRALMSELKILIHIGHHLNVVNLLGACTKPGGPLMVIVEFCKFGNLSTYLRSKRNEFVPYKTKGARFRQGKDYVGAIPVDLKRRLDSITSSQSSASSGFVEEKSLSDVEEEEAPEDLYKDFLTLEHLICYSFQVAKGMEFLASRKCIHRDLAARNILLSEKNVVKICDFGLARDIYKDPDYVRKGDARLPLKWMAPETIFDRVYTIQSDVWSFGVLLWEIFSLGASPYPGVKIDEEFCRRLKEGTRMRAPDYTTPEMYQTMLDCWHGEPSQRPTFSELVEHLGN
Procedure: as §1, §2, §3

[1] = ratio of IC50 values vs compound 3

| Structure (SMILES) | IC50 (MET) [µM] | IC50 (c-Kit) [µM] | IC50 (VEGFR-2) [µM] | c-Kit potency, fold less potent than compound 3 (c-Kit; [1]) [fold] | VEGFR-2 potency, fold more potent than compound 3 (VEGFR-2) | c-Kit potency, fold more potent than compound 3 (c-Kit; [1]) [fold] | c-Kit potency relative to compound 9g (c-Kit; compared with 9g) | c-Kit inhibitory activity (in words) (c-Kit) |
| --- | --- | --- | --- | --- | --- | --- | --- | --- |
| O=c1c2c(Nc3ccc4ccncc4c3)nccc2ccn1-c1ccc(F)cc1 [Compound 9e, 2-(4-fluorophenyl)-8-(isoquinolin-7-ylamino)-2,7-naphthyridin-1(2H)-one] | > 5 | > 5 | > 5 | – | – | – | – | – |
| O=c1c2c(Nc3ccccc3)nccc2ccn1-c1ccc(F)cc1 [Compound 9a, 2-(4-fluorophenyl)-8-(phenylamino)-2,7-naphthyridin-1(2H)-one] | > 5 | > 5 | > 5 | – | – | – | – | – |
| O=c1c2c(NCc3ccncc3)nccc2ccn1-c1ccc(F)cc1 [Compound 9g, 2-(4-fluorophenyl)-8-((pyridin-4-ylmethyl)amino)-2,7-naphthyridin-1(2H)-one] | > 5 | 0.832 | 0.601 | 2.5 | – | – | – | – |
| Cc1cccc(C)c1Nc1nccc2ccn(-c3ccc(F)cc3)c(=O)c12 [Compound 9b, 8-((2,6-dimethylphenyl)amino)-2-(4-fluorophenyl)-2,7-naphthyridin-1(2H)-one] | > 5 | > 5 | > 5 | – | – | – | – | – |
| O=c1c2c(Nc3cccnc3)nccc2ccn1-c1ccc(F)cc1 [Compound 9d, 2-(4-fluorophenyl)-8-(pyridin-3-ylamino)-2,7-naphthyridin-1(2H)-one] | > 5 | > 5 | > 5 | – | – | – | – | – |
| O=c1c2c(NCc3cccnc3)nccc2ccn1-c1ccc(F)cc1 [Compound 9h, 2-(4-fluorophenyl)-8-((pyridin-3-ylmethyl)amino)-2,7-naphthyridin-1(2H)-one] | > 5 | > 5 | > 5 | – | – | – | – | – |
| O=c1c2c(NCc3ccccc3)nccc2ccn1-c1ccc(F)cc1 [Compound 9f, 8-(benzylamino)-2-(4-fluorophenyl)-2,7-naphthyridin-1(2H)-one] | > 5 | > 5 | > 5 | – | – | – | – | – |
| O=c1c2c(NCc3cccc4ccccc34)nccc2ccn1-c1ccc(F)cc1 [Compound 9j, 2-(4-fluorophenyl)-8-((naphthalen-1-ylmethyl)amino)-2,7-naphthyridin-1(2H)-one] | > 5 | > 5 | > 5 | – | – | – | – | – |
| Nc1nccc(Oc2ccc(Nc3nccc4ccn(-c5ccc(F)cc5)c(=O)c34)cc2F)c1Cl [Compound 3, reference compound] | 0.0099 | 0.33 | 0.28 | – | – | – | – | – |
| O=c1c2c(NCc3ccnc4ccccc34)nccc2ccn1-c1ccc(F)cc1 [Compound 9k, 2-(4-fluorophenyl)-8-((quinolin-4-ylmethyl)amino)-2,7-naphthyridin-1(2H)-one] | > 5 | 0.0085 | 0.238 | – | – | 38.8 | – | – |
| O=c1c2c(NCc3ccco3)nccc2ccn1-c1ccc(F)cc1 [Compound 9i, 2-(4-fluorophenyl)-8-((furan-2-ylmethyl)amino)-2,7-naphthyridin-1(2H)-one] | > 5 | > 5 | > 5 | – | – | – | – | – |

Now from value to compound, other results behind:

| IC50 (MET) [µM] | IC50 (c-Kit) [µM] | IC50 (VEGFR-2) [µM] | c-Kit potency, fold less potent than compound 3 (c-Kit; [1]) [fold] | VEGFR-2 potency, fold more potent than compound 3 (VEGFR-2) | c-Kit potency, fold more potent than compound 3 (c-Kit; [1]) [fold] | c-Kit potency relative to compound 9g (c-Kit; compared with 9g) | Structure (SMILES) | c-Kit inhibitory activity (in words) (c-Kit) |
| --- | --- | --- | --- | --- | --- | --- | --- | --- |
| > 5 | > 5 | > 5 | – | – | – | – | Cc1cc2ccnc(NCc3ccco3)c2c(=O)n1-c1ccc(OC(F)(F)F)cc1 [Compound 10p, 8-((furan-2-ylmethyl)amino)-3-methyl-2-(4-(trifluoromethoxy)phenyl)-2,7-naphthyridin-1(2H)-one] | – |
| > 5 | > 5 | > 5 | – | – | – | – | Cc1cc2ccnc(Nc3cccnc3)c2c(=O)n1-c1ccc(F)cc1 [Compound 10a, 2-(4-fluorophenyl)-3-methyl-8-(pyridin-3-ylamino)-2,7-naphthyridin-1(2H)-one] | – |
| > 5 | > 5 | > 5 | – | – | – | – | Cc1cc2ccnc(NCc3ccncc3)c2c(=O)n1-c1ccc(F)cc1 [Compound 10c, 2-(4-fluorophenyl)-3-methyl-8-((pyridin-4-ylmethyl)amino)-2,7-naphthyridin-1(2H)-one] | – |
| > 5 | 0.107 | 0.0565 | – | 5.0–8.8 fold | – | – | Cc1cc2ccnc(NCc3ccnc4ccccc34)c2c(=O)n1-c1ccc(Cl)cc1 [Compound 10l, 2-(4-chlorophenyl)-3-methyl-8-((quinolin-4-ylmethyl)amino)-2,7-naphthyridin-1(2H)-one] | slightly stronger c-Kit inhibitory activity than compound 3 |
| > 5 | > 5 | > 5 | – | – | – | – | Cc1cc2ccnc(NCc3cccnc3)c2c(=O)n1-c1ccccc1 [Compound 10f, 3-methyl-2-phenyl-8-((pyridin-3-ylmethyl)amino)-2,7-naphthyridin-1(2H)-one] | – |
| > 5 | > 5 | > 5 | – | – | – | – | Cc1cc2ccnc(NCc3ccncc3)c2c(=O)n1-c1ccccc1 [Compound 10g, 3-methyl-2-phenyl-8-((pyridin-4-ylmethyl)amino)-2,7-naphthyridin-1(2H)-one] | – |
| > 5 | > 5 | > 5 | – | – | – | – | Cc1cc2ccnc(Nc3cccnc3)c2c(=O)n1-c1ccc(Cl)cc1 [Compound 10i, 2-(4-chlorophenyl)-3-methyl-8-(pyridin-3-ylamino)-2,7-naphthyridin-1(2H)-one] | – |
| > 5 | > 5 | 0.887 | – | – | – | – | Cc1cc2ccnc(NCc3ccnc4ccccc34)c2c(=O)n1-c1ccc(F)cc1F [Compound 10s, 2-(2,4-difluorophenyl)-3-methyl-8-((quinolin-4-ylmethyl)amino)-2,7-naphthyridin-1(2H)-one] | – |
| > 5 | 1.61 | 0.208 | – | – | – | – | Cc1cc2ccnc(NCc3ccnc4ccccc34)c2c(=O)n1-c1ccc(F)cc1 [Compound 10d, 2-(4-fluorophenyl)-3-methyl-8-((quinolin-4-ylmethyl)amino)-2,7-naphthyridin-1(2H)-one] | weak c-Kit inhibitory activity |
| > 5 | > 5 | > 5 | – | – | – | – | Cc1cc2ccnc(Nc3cccnc3)c2c(=O)n1-c1ccc(OC(F)(F)F)cc1 [Compound 10m, 3-methyl-8-(pyridin-3-ylamino)-2-(4-(trifluoromethoxy)phenyl)-2,7-naphthyridin-1(2H)-one] | – |
| > 5 | > 5 | > 5 | – | – | – | – | Cc1cc2ccnc(NCc3cccnc3)c2c(=O)n1-c1ccc(OC(F)(F)F)cc1 [Compound 10n, 3-methyl-8-((pyridin-3-ylmethyl)amino)-2-(4-(trifluoromethoxy)phenyl)-2,7-naphthyridin-1(2H)-one] | – |
| > 5 | > 5 | 1.03 | – | – | – | – | Cc1cc2ccnc(NCc3ccnc4ccccc34)c2c(=O)n1-c1ccccc1 [Compound 10h, 3-methyl-2-phenyl-8-((quinolin-4-ylmethyl)amino)-2,7-naphthyridin-1(2H)-one] | – |
| > 5 | > 5 | > 5 | – | – | – | – | Cc1cc2ccnc(NCc3cccnc3)c2c(=O)n1-c1ccc(Cl)cc1 [Compound 10j, 2-(4-chlorophenyl)-3-methyl-8-((pyridin-3-ylmethyl)amino)-2,7-naphthyridin-1(2H)-one] | – |
| > 5 | > 5 | > 5 | – | – | – | – | Cc1cc2ccnc(NCc3cccnc3)c2c(=O)n1-c1ccc(F)cc1 [Compound 10b, 2-(4-fluorophenyl)-3-methyl-8-((pyridin-3-ylmethyl)amino)-2,7-naphthyridin-1(2H)-one] | – |
| > 5 | 0.169 | 0.0317 | – | 5.0–8.8 fold | – | five-times more potent than compound 9g | Cc1cc2ccnc(NCc3ccnc4ccccc34)c2c(=O)n1-c1ccc(OC(F)(F)F)cc1 [Compound 10r, 3-methyl-8-((quinolin-4-ylmethyl)amino)-2-(4-(trifluoromethoxy)phenyl)-2,7-naphthyridin-1(2H)-one] | slightly stronger c-Kit inhibitory activity than compound 3 |
| > 5 | > 5 | 0.538 | – | – | – | – | Cc1cc2ccnc(NCc3ccncc3)c2c(=O)n1-c1ccc(OC(F)(F)F)cc1 [Compound 10o, 3-methyl-8-((pyridin-4-ylmethyl)amino)-2-(4-(trifluoromethoxy)phenyl)-2,7-naphthyridin-1(2H)-one] | – |
